Source: PMC12736255, “Reinvestigating Pyrrol-2-One-Based Compounds: From Antimicrobial Agents to Promising Antitumor Candidates” (Pharmaceuticals, 2025)

Columns and labels:
Experiment in all cases: NCI-60 single-dose screen
Assay type in all cases: cell-based
HT-29 = settings: Homo sapiens; HT-29, 10^–5 M; read-out: GI (%)
Text: (§1) In the next step, all synthesized compounds were electronically submitted and accepted for testing to the National Cancer Institute (NCI) platform, for the single dose (10^−5 M) screening against a panel of 60 human tumor cell lines, representing leukemia, melanoma, and cancers of the lung, colon, central nervous system, ovary, kidney, prostate, and breast. The results are summarized in Table 2, with the best values highlighted in red (Figures S1–S14).

IGROV1 = settings: Homo sapiens, IGROV-1; IGROV1, 10^–5 M; read-out: GI (%)
Text: as §1

LOX IMVI = settings: Homo sapiens, 10^–5 M, read-out: GI (%)
Text: as §1

MALME-3M = settings: Homo sapiens, 10^–5 M, read-out: GI (%)
Text: as §1

SK-OV-3 = settings: Homo sapiens; SK-OV-3, 10^–5 M; read-out: GI (%)
Text: as §1

MCF7 = settings: Homo sapiens; MCF7, 10^–5 M; read-out: GI (%)
Text: as §1

ACHN = settings: Homo sapiens, 10^–5 M, read-out: GI (%)
Text: as §1

HOP-92 = settings: Homo sapiens; HOP-92, 10^–5 M; read-out: GI (%)
Text: as §1

NCI-H460 = settings: Homo sapiens; NCI-H460, 10^–5 M; read-out: GI (%)
Text: as §1

HL-60(TB) = settings: Homo sapiens, 10^–5 M, read-out: GI (%)
Text: as §1

NCI/ADR-RES = settings: Homo sapiens, 10^–5 M, read-out: GI (%)
Text: as §1

DU-145 = settings: Homo sapiens; DU-145, 10^–5 M; read-out: GI (%)
Text: as §1

UACC-62 = settings: Homo sapiens; UACC-62, 10^–5 M; read-out: GI (%)
Text: as §1

K-562 = settings: Homo sapiens, K562; K-562, 10^–5 M; read-out: GI (%)
Text: as §1

TK-10 = settings: Homo sapiens; TK-10, 10^–5 M; read-out: GI (%)
Text: as §1

M14 = settings: Homo sapiens; M14, 10^–5 M; read-out: GI (%)
Text: as §1

A549/ATCC = settings: Homo sapiens, 10^–5 M, read-out: GI (%)
Text: as §1

SF-268 = settings: Homo sapiens; SF-268, 10^–5 M; read-out: GI (%)
Text: as §1

OVCAR-3 = settings: Homo sapiens; OVCAR-3, 10^–5 M; read-out: GI (%)
Text: as §1

OVCAR-4 = settings: Homo sapiens; OVCAR-4, 10^–5 M; read-out: GI (%)
Text: as §1

SW-620 = settings: Homo sapiens; SW-620, 10^–5 M; read-out: GI (%)
Text: as §1

HCT-116 = settings: Homo sapiens; HCT-116, 10^–5 M; read-out: GI (%)
Text: as §1

MDA-MB-231/ATCC = settings: Homo sapiens, 10^–5 M, read-out: GI (%)
Text: as §1

MOLT-4 = settings: Homo sapiens; MOLT-4, 10^–5 M; read-out: GI (%)
Text: as §1

T-47D = settings: Homo sapiens, T47D, 10^–5 M, read-out: GI (%)
Text: as §1

NCI-H522 = settings: Homo sapiens; NCI-H522, 10^–5 M; read-out: GI (%)
Text: as §1

RPMI-8226 = settings: Homo sapiens; RPMI-8226, 10^–5 M; read-out: GI (%)
Text: as §1

786-0 = settings: Homo sapiens; 786-0, 10^–5 M; read-out: GI (%)
Text: as §1

SF-539 = settings: Homo sapiens; SF-539, 10^–5 M; read-out: GI (%)
Text: as §1

SK-MEL-28 = settings: Homo sapiens; SK-MEL-28, 10^–5 M; read-out: GI (%)
Text: as §1

HCT-15 = settings: Homo sapiens; HCT-15, 10^–5 M; read-out: GI (%)
Text: as §1

UACC-257 = settings: Homo sapiens; UACC-257, 10^–5 M; read-out: GI (%)
Text: as §1

HS 578T = settings: Homo sapiens, 10^–5 M, read-out: GI (%)
Text: as §1

SK-MEL-2 = settings: Homo sapiens; SK-MEL-2, 10^–5 M; read-out: GI (%)
Text: as §1

NCI-H23 = settings: Homo sapiens; NCI-H23, 10^–5 M; read-out: GI (%)
Text: as §1

SNB-75 = settings: Homo sapiens; SNB-75, 10^–5 M; read-out: GI (%)
Text: as §1

CCRF-CEM = settings: Homo sapiens, 10^–5 M, read-out: GI (%)
Text: as §1

NCI-H322M = settings: Homo sapiens, 10^–5 M, read-out: GI (%)
Text: as §1

SR = settings: Homo sapiens, 10^–5 M, read-out: GI (%)
Text: as §1

Compound | inhibition at 10 µM (HT-29) | inhibition at 10 µM (IGROV1) | inhibition at 10 µM (LOX IMVI) | inhibition at 10 µM (MALME-3M) | inhibition at 10 µM (SK-OV-3) | inhibition at 10 µM (MCF7) | inhibition at 10 µM (ACHN) | inhibition at 10 µM (HOP-92) | inhibition at 10 µM (NCI-H460) | inhibition at 10 µM (HL-60(TB)) | inhibition at 10 µM (NCI/ADR-RES) | inhibition at 10 µM (DU-145) | inhibition at 10 µM (UACC-62) | inhibition at 10 µM (K-562) | inhibition at 10 µM (TK-10) | inhibition at 10 µM (M14) | inhibition at 10 µM (A549/ATCC) | inhibition at 10 µM (SF-268) | inhibition at 10 µM (OVCAR-3) | inhibition at 10 µM (OVCAR-4) | other results
COc1ccc(C2C=C(Nc3ccc(I)cc3)C(=O)N2c2ccc(I)cc2)cc1OC (stereo not drawn) [3j] | 0% | 0% | 8% | 0% | 0% | 6% | 0% | 0% | 0% | 0% | 0% | 0% | 0% | 0% | 0% | 0% | 5% | 3% | 0% | 0% | inhibition at 10 µM (SW-620): 0%; inhibition at 10 µM (HCT-116): 0%; inhibition at 10 µM (MDA-MB-231/ATCC): 0%; inhibition at 10 µM (MOLT-4): 0%; inhibition at 10 µM (T-47D): 6%; inhibition at 10 µM (NCI-H522): 0%; inhibition at 10 µM (RPMI-8226): 7%; inhibition at 10 µM (786-0): 0%; inhibition at 10 µM (SF-539): 28%; inhibition at 10 µM (SK-MEL-28): 0%; inhibition at 10 µM (HCT-15): 0%; inhibition at 10 µM (UACC-257): 0%; inhibition at 10 µM (HS 578T): 0%; inhibition at 10 µM (SK-MEL-2): 0%; inhibition at 10 µM (NCI-H23): 8%; inhibition at 10 µM (SNB-75): 0%; inhibition at 10 µM (CCRF-CEM): 0%; inhibition at 10 µM (NCI-H322M): 0%; inhibition at 10 µM (SR): 0%
COc1cc(OC)c(C2C=C(Nc3ccc(I)cc3)C(=O)N2c2ccc(I)cc2)cc1OC (stereo not drawn) [3k] | 0% | 2% | 5% | 0% | 0% | 23% | 0% | 0% | 0% | 2% | 0% | 0% | 0% | 0% | 1% | 0% | 3% | 1% | 0% | 3% | inhibition at 10 µM (SW-620): 0%; inhibition at 10 µM (HCT-116): 4%; inhibition at 10 µM (MDA-MB-231/ATCC): 0%; inhibition at 10 µM (MOLT-4): 0%; inhibition at 10 µM (T-47D): 8%; inhibition at 10 µM (NCI-H522): 2%; inhibition at 10 µM (RPMI-8226): 14%; inhibition at 10 µM (786-0): 3%; inhibition at 10 µM (SF-539): 18%; inhibition at 10 µM (SK-MEL-28): 0%; inhibition at 10 µM (HCT-15): 0%; inhibition at 10 µM (UACC-257): 0%; inhibition at 10 µM (HS 578T): 0%; inhibition at 10 µM (SK-MEL-2): 0%; inhibition at 10 µM (NCI-H23): 0%; inhibition at 10 µM (SNB-75): 0%; inhibition at 10 µM (CCRF-CEM): 0%; inhibition at 10 µM (NCI-H322M): 4%; inhibition at 10 µM (SR): 7%
N#Cc1ccc(C2C=C(Nc3ccc(I)cc3)C(=O)N2c2ccc(I)cc2)cc1 (stereo not drawn) [3l] | 40% | 54% | 89% | 46% | 75% | 52% | 100% | 75% | 40% | 0% | 37% | 37% | 17% | 14% | 99% | 63% | 31% | 93% | 60% | 100% | inhibition at 10 µM (SW-620): 50%; inhibition at 10 µM (HCT-116): 48%; inhibition at 10 µM (MDA-MB-231/ATCC): 100%; inhibition at 10 µM (MOLT-4): 78%; inhibition at 10 µM (T-47D): 59%; inhibition at 10 µM (NCI-H522): 32%; inhibition at 10 µM (RPMI-8226): 83%; inhibition at 10 µM (786-0): 55%; inhibition at 10 µM (SF-539): 35%; inhibition at 10 µM (SK-MEL-28): 29%; inhibition at 10 µM (HCT-15): 21%; inhibition at 10 µM (UACC-257): 21%; inhibition at 10 µM (HS 578T): 100%; inhibition at 10 µM (SK-MEL-2): 100%; inhibition at 10 µM (NCI-H23): 36%; inhibition at 10 µM (SNB-75): 100%; inhibition at 10 µM (CCRF-CEM): 74%; inhibition at 10 µM (NCI-H322M): 51%; inhibition at 10 µM (SR): 87%
O=C1C(Nc2ccc(I)cc2)=CC(c2ccco2)N1c1ccc(I)cc1 (stereo not drawn) [3m] | 6% | 8% | 63% | 34% | 67% | 93% | 9% | 29% | 0% | 30% | 15% | 0% | 61% | 14% | 7% | 4% | 16% | 79% | 8% | 0% | inhibition at 10 µM (SW-620): 16%; inhibition at 10 µM (HCT-116): 20%; inhibition at 10 µM (MDA-MB-231/ATCC): 11%; inhibition at 10 µM (MOLT-4): 70%; inhibition at 10 µM (T-47D): 49%; inhibition at 10 µM (NCI-H522): 31%; inhibition at 10 µM (RPMI-8226): 93%; inhibition at 10 µM (786-0): 36%; inhibition at 10 µM (SF-539): 63%; inhibition at 10 µM (SK-MEL-28): 20%; inhibition at 10 µM (HCT-15): 16%; inhibition at 10 µM (UACC-257): 32%; inhibition at 10 µM (HS 578T): 39%; inhibition at 10 µM (SK-MEL-2): 100%; inhibition at 10 µM (NCI-H23): 19%; inhibition at 10 µM (SNB-75): 9%; inhibition at 10 µM (CCRF-CEM): 59%; inhibition at 10 µM (NCI-H322M): 19%; inhibition at 10 µM (SR): 76%
